# Test results: US20160113932A1, “TREATMENT OF CANCERS USING PI3 KINASE ISOFORM MODULATORS” (INFINITY PHARMACEUTICALS, INC., priority 2013, published 2016)
# Several values for one entry are separate records, joined by “and”; a condition that tells them apart may be missing. Equal values may be shown once. Entries after “also recorded” stand apart in the source; their conditions may differ.
# What was measured:
# [1] = tested on: Pfeiffer; test: DLBCL cellular growth inhibition assay; assay type: cell-based; settings: Homo sapiens
# [2] = tested on: serum cytokines/chemokines and matrix metalloproteinases; test: Serum cytokines/chemokines in patients, Milliplex 96-well immuno-assay; assay type: in vivo, human; settings: CLL patients pooled, 8-75 mg BID, C1D8 and/or C2D1
# Procedure: Serum concentrations of a panel of human cytokines/chemokines were determined by Milliplex 96-well immuno-assay as described below.
# the blood was allowed to clot for at least 30 minutes before centrifugation for 10 minutes at 1000×g. Serum was removed and either assayed immediately or aliquoted and stored at ≦−20° C. When using frozen samples, it is recommended to thaw the samples completely, mix well by vortexing and centrifuge prior to use in the assay to remove particulates.
# 1.0 mL deionized water was added to the bottle containing lyophilized Serum Matrix (catalog number MX HSM from MILLIPLEX® Map), and was allowed to be mixed will for at least 10 minutes for complete reconstitution.
# 200 μL of wash buffer was added into each well of the plate. The plate was sealed and mixed on a plate shaker for 10 minutes at room temperature (20-25° C.). The wash buffer was decanted and the residual amount was removed from all wells by inverting the plate and tapping it smartly onto absorbent towels several times. 25 μL of each standard or control was added into the appropriate wells. […]
# The plate was run on Luminex 200™, HTS, FLEXMAP 3D™ or MAGPIX® with xPONENT software. The Median Fluorescent Intensity (MFI) data was saved and analyzed using a 5-parameter logistic or spline curve-fitting method for calculating cytokine/chemokines concentrations in samples. […]
# [3] = Clinical pharmacokinetics after 25 mg or 75 mg BID administration; assay type: in vivo, human
# [4] = Absolute bioavailability / pharmacokinetics in Sprague-Dawley rats; assay type: in vivo; settings: Rat, PO, 10 mg/kg, suspension
# [5] = Absolute bioavailability / pharmacokinetics in BALB/c mice; assay type: in vivo; settings: Mouse, PO, 10 mg/kg, suspension, calculated using AUC0-last
# [6] = tested on: CD63 expression on the surface of activated CCR3+ basophils; test: Basophil activation, ex vivo anti-FcεR1 activation assay, healthy subjects; assay type: in vivo, human; settings: single dose administration
# [7] = Phase 1 study in healthy subjects: safety and tolerability; assay type: in vivo
# Procedure: Serial ECGs were performed at multiple time points after dosing in all study groups.
# In addition, a rapid response was observed, assessed as reduction in CD63^+ expression on CCR3^+ basophils in an ex vivo anti-FcεR1 activation assay (FIG. 1-3). […] CD63^+ expression returned to baseline as plasma drug concentrations declined. […] The most common non-procedural AEs occurring in ≧2 subjects were headache (8% vs. 25% PLB), myalgia (6% vs. 8% PLB), and nasopharyngitis (6% vs. 0% PLB). […] No clinical significant findings in safety lab studies of ECGs were observed.
# [8] = Plasma protein binding in vitro, rat; assay type: in vitro ADME; settings: all concentrations tested
# [9] = tested on: Loucy; test: T-ALL growth inhibition; assay type: cell-based, human; settings: Homo sapiens; PTEN deficient Loucy cell line
# Procedure: To further explore the individual contributions of the varying PI3K isoforms on T-ALL cell growth, Loucy ALL cells were treated with doxorubicin and various PI3K inhibitors as shown in FIG. 32 at various concentrations as denoted in the figure.
# [10] = tested on: migration of CLL cells; test: Chemotaxis assay of CLL cells; assay type: cell-based, human; settings: range 2-42%; n=8
# Excerpt: (FIGS. 35 and 36). […] In addition, this direct inhibitory effect on CLL cells in the lymph nodes could lead to rapid and prolonged responses in cancer patients.
# [11] = tested on: PI3K-δ specific basophil activation; test: Anti-fCER1 BAT: PI3K-δ specific basophil activation in human whole blood; assay type: cell-based; settings: read-out: Anti-fCER1 BAT (delta) EC50
# [12] = molecular target: hERG channel current (Homo sapiens, UniProt Q12809); test: In vitro hERG assay; settings: hERG IC50 fit
# hERG channel current, sequence (Q12809 whole entry): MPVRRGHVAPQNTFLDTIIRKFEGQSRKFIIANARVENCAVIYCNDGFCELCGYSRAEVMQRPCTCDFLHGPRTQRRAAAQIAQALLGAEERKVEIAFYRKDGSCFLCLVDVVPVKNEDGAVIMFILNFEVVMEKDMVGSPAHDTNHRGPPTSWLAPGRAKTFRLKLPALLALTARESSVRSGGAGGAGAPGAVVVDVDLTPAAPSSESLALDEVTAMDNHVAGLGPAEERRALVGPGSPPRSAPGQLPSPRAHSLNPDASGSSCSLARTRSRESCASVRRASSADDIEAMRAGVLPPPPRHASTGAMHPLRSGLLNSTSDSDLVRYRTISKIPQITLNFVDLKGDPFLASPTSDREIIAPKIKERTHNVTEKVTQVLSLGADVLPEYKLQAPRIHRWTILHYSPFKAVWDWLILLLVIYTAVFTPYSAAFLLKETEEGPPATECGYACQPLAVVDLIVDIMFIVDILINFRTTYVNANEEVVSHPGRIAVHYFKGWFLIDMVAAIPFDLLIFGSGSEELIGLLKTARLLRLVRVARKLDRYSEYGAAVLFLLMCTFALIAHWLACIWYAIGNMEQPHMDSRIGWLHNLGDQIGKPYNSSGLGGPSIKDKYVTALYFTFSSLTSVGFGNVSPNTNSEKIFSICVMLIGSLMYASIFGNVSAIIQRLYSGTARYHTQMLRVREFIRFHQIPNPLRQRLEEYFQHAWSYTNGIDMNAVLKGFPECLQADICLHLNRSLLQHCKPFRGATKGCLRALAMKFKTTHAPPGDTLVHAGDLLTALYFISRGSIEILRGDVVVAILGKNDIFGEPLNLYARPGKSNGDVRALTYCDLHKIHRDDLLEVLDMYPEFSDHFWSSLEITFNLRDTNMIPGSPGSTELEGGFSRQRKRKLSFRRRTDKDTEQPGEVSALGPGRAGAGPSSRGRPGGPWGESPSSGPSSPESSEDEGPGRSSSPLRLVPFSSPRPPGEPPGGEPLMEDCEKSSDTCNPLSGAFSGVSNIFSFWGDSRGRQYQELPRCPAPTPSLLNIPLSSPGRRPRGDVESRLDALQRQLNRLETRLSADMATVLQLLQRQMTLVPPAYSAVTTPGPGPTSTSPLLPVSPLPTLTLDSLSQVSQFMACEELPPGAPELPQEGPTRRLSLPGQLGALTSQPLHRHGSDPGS
# [13] = Absolute bioavailability / pharmacokinetics in cynomolgus monkeys; assay type: in vivo; settings: Monkey, PO, 5 mg/kg, suspension
# [14] = multiple doses for 2 weeks (n=36)
smiles,measurement,setting,value
C[C@H](Nc1ncnc2[nH]cnc12)c1cc2cccc(Cl)c2c(=O)n1-c1ccccc1 [Compound 292],IC50,[1],> 50000 nM
same,analytes decreased after treatment compared to baseline,[2],10 of 72 analytes
same,mean predose steady state plasma concentration,[3]; 25 mg BID,about 390 ng/ml
same,time of maximal plasma concentrations following dosing,[3]; 25 mg or 75 mg BID,around 1 hour
same,AUC versus dose,[3]; doses through 75 mg BID,increases proportionally with doses
same,half-life,"[3]; human, plasma, oral, both 25 mg and 75 mg BID, read-out: elimination half-life",4 to 5 h
same,Foral,[4],57%
same,Foral,[5],7% and 7i %
same,dose at which maximal PD response was achieved,[6],5 mg
same,IgE,[7]; healthy subjects,No increases in IgE
same,QTcF at any assessment,"[7]; healthy subjects, serial ECGs",≤ 500 ms
same,tolerability,"[7]; healthy subjects, single doses up to 30 mg, multiple doses up to 10 mg daily for 14 days",well tolerated; also recorded: well-tolerated
same,"headache, subjects",[7]; [14],8%
same,"myalgia, subjects",[7]; [14],6%
same,"nasopharyngitis, subjects",[7]; [14],6%
same,percent free in plasma compared with human plasma,[8],consistently higher
same,IC50,[9],245 nM
same,"reduction in migration of CLL cells, % control reduction, median",[10],23%
same,EC50,[11],10 to 100 nM
same,Hill coefficient,[12],1.3
same,Foral,[13],40%
